# Results published in article PMC7794397, “Curbing gastrointestinal infections by defensin fragment modifications without harming commensal microbiota” (Communications Biology, 2021).
# Values joined by “and” are separate entries in the source; they are usually repeats but may differ in a detail not shown here. Identical values can stand only once. Like-named read-outs stand apart in the source and are kept apart here. Residues, ends and D or L forms follow the SMILES beside them. *: point of attachment. Palmitoyl = CCCCCCCCCCCCCCCC(=O)*; AEEA = NCCOCCOCC(=O)O
# Columns and labels:
# S. aureus NCTC8325 = assay: Transmission and scanning electron microscopy; type: cell-based; conditions: 37.5 µM Pam-3 (4x MIC), 30 min
# Description: As a control, bacteria were exposed to 0.01% acetic acid. Afterward bacteria were fixed in Karnovsky’s reagent.
# For transmission electron microscopy (TEM), bacteria were high-pressure frozen (HPF Compact 03, Engineering Office M. Wohlwend GmbH) in capillaries, freeze-substituted (AFS2, Leica Microsystems) with 2% OsO4 and 0.4% uranyl acetate in acetone as substitution medium and embedded in EPON. Ultrathin sections were stained with uranyl acetate and lead citrate and analyzed with a Tecnai Spirit (Thermo Fisher Scientific) operated at 120 kV.
# For scanning electron microscopy (SEM), bacteria were washed in PBS and finally fixed with 1% OsO4 on ice for 1 h. Next, samples were prepared on polylysin-coated coverslips, dehydrated in a graduated series to 100% ethanol and critical point dried (Polaron) with CO2. Finally, samples were sputter-coated with a 3 nm thick layer of platinum (Safematic CCu-010) and examined with a Hitachi Regulus 8230 field emission scanning electron microscope (Hitachi) at an accelerating voltage of 5 kV.
# S. Typhimurium [1] = assay: Salmonella Typhimurium gastrointestinal infection in mice; type: in vivo, C57BL/6N mice; parameters: Body weight (% of initial): unit not given here
# Description: For S. Typhimurium infections experiments, age- and sex-matched mice between 10 and 14 weeks of age were used. Both- female and male mice were used in experiments. […] Afterward, mice were supplied with water and food ad libitum. 20 h after streptomycin treatment, water and food were withdrawn again, 4 h before the mice were orally infected with 10^5 CFU of S. Typhimurium in 200 μl PBS. Drinking water ad libitum was supplied immediately and food 2 h post infection (p.i.). […] Mice were weighed every day to record potential body-weight loss. All mice were euthanized by asphyxiation with CO2 at indicated time points. Intestinal tissues (small intestine, cecum, colon) were removed aseptically. To collect intestinal content, organs were flushed with PBS. Organs were opened longitudinally, cleaned thoroughly with PBS and weighted. Organs and content were homogenized in PBS using a Polytron homogenizer ([…]).
# S. aureus ATCC 25923 = type: cell-based; conditions: for Fold change in MIC: relative to MIC of first passage, Mean
# Description: (§1) Development of resistance to the peptides was assessed with S. aureus and S. Typhimurium. […] Bacteria were cultured overnight at 37 °C at 150 rpm in TSB. Bacteria were washed twice with 10 mM sodium phosphate buffer containing 1% (w/v) TSB. […] After incubation, 100 µl of 6% TSB (w/v) was added and plates incubated in a humidified atmosphere for 21 h at 37 °C and 150 rpm.
# (§2) The MIC, the lowest concentration of peptide/antibiotic that caused a lack of visible bacterial growth, was determined for each bacterial species. […] This was repeated for 25 passages.
# S. Typhimurium [2] = type: cell-based; conditions: radial diffusion assay
# Description: (§3) Antimicrobial activity was analyzed by radial diffusion assay. Log-phase bacteria were cultivated for up to 18 h in TSB (TSB, Becton Dickinson, USA), washed and diluted to 4 × 10^6 CFU in 10 ml agar. Bacteria were incubated in 10 ml of 10 mM sodium phosphate, pH 7.4, containing 0.3 mg/ml of TSB powder and 1% (w/v) low EEO-agarose (AppliChem). 1 µg of each lipopeptide was pipetted into punched wells in a final volume of 4 µl and diffused into the gel for 3 h at 37 °C. After that, a nutrient-rich gel with 6% TSB (w/v) and 1% agarose in 10 mM sodium phosphate buffer was poured on top of the first gel and incubated for up to 24 h at 37 °C. Then the diameter of inhibition zones was measured.
# [3] = system: several pathogenic bacteria; assay: Radial diffusion assay, all tested strains; type: cell-based
# Description: as §3
# S. Typhimurium DSM554 = conditions: for Fold change in MIC: relative to MIC of first passage, Mean
# Description: as §1, §2
# [4] = 250 µg orally 6 and 22 h p.i., 48 h after infection, individual animals, N = 12
smiles,measurement,setting,value
CCCCCCCCCCCCCCCC(=O)NCCOCCOCC(=O)N[C@@H](CCCNC(=N)N)C(=O)NCC(=O)N[C@@H](CCCCN)C(=O)N[C@@H](C)C(=O)N[C@@H](CCCCN)C(=O)N[C@@H](CS)C(=O)N[C@@H](CS)C(=O)N[C@@H](CCCCN)C(=O)O [Pam-3] ({Palmitoyl-AEEA}-RGKAKCCK-OH; C-terminus assumed),"bacterial morphology, TEM (in words)",S. aureus NCTC8325,strong cell envelope damage with disrupted membranes and pores in most of the cells
same,S. Typhimurium in cecum content,S. Typhimurium [1]; [4],101000000 CFU/ml and 19300000 CFU/ml and 209000000 CFU/ml and 369000000 CFU/ml and 338000000 CFU/ml and 343000000 CFU/ml and 185000000 CFU/ml and 11700000 CFU/ml and 392000000 CFU/ml and 49300000 CFU/ml and 19200000 CFU/ml and 26400000 CFU/ml
same,S. Typhimurium in cecum tissue,S. Typhimurium [1]; [4],22792020 CFU/ml and 690476 CFU/ml and 510638 CFU/ml and 1770972 CFU/ml and 4139241 CFU/ml and 2249657 CFU/ml and 543580 CFU/ml and 809249 CFU/ml and 1834320 CFU/ml and 538642 CFU/ml and 466793 CFU/ml and 451429 CFU/ml
same,S. Typhimurium in small intestine content,S. Typhimurium [1]; [4],19170.1 CFU/ml and 3500 CFU/ml and 430000 CFU/ml and 36000 CFU/ml and 2200 CFU/ml and 10400 CFU/ml and 20600 CFU/ml and 69000 CFU/ml and 70112.2 CFU/ml and 111188 CFU/ml and 78651.7 CFU/ml and 1597222 CFU/ml
same,S. Typhimurium in small intestine tissue,S. Typhimurium [1]; [4],6700.17 CFU/ml and 99601.6 CFU/ml and 75335.4 CFU/ml and 1784.12 CFU/ml and 22916.7 CFU/ml and 29579.1 CFU/ml and 9803.92 CFU/ml and 82191.8 CFU/ml and 12841.1 CFU/ml and 8221.99 CFU/ml and 14925.4 CFU/ml and 10101 CFU/ml
same,Body weight (% of initial),"S. Typhimurium [1]; Day 0 of S. Typhimurium infection, individual animals, N = 12",100
same,Body weight (% of initial),"S. Typhimurium [1]; Day 1 of S. Typhimurium infection, 250 µg orally 6 and 22 h p.i., individual animals, N = 12",94.8627 and 88.6861 and 93.3869 and 93.4108 and 92.7247 and 90.6285 and 93.2755 and 91.8377 and 90.7373 and 93.6733 and 93.6223 and 95.0622
same,Body weight (% of initial),"S. Typhimurium [1]; Day 2 of S. Typhimurium infection, 250 µg orally 6 and 22 h p.i., individual animals, N = 12",94.2562 and 87.7476 and 94.3788 and 93.5562 and 89.4912 and 89.5623 and 93.1887 and 92.315 and 87.1434 and 90.8742 and 93.7891 and 93.0505
same,weight loss during infection (in words),S. Typhimurium [1]; Fig. 6d,tends to reduce weight loss
same,CFU of S. Typhimurium in cecum content and tissue vs PBS (in words),S. Typhimurium [1]; Mann–Whitney p < 0.0001 and p = 0.0409,significantly reduced
same,bacterial load in small intestine content vs PBS (in words),S. Typhimurium [1]; Mann–Whitney p = 0.0024,lowered the bacterial load
same,bacterial load in small intestine tissue vs PBS (in words),S. Typhimurium [1]; Mann–Whitney p = 0.8621,without affecting
same,Fold change in MIC,S. aureus ATCC 25923; Day (passage) 0,1.0
same,Fold change in MIC,S. aureus ATCC 25923; Day (passage) 1,0.7
same,Fold change in MIC,S. aureus ATCC 25923; Day (passage) 2,1.0
same,Fold change in MIC,S. aureus ATCC 25923; Day (passage) 3,1.0
same,Fold change in MIC,S. aureus ATCC 25923; Day (passage) 4,1.3
same,Fold change in MIC,S. aureus ATCC 25923; Day (passage) 5,1.2
same,Fold change in MIC,S. aureus ATCC 25923; Day (passage) 6,0.8
same,Fold change in MIC,S. aureus ATCC 25923; Day (passage) 7,0.7
same,Fold change in MIC,S. aureus ATCC 25923; Day (passage) 8,0.8
same,Fold change in MIC,S. aureus ATCC 25923; Day (passage) 9,1.0
same,Fold change in MIC,S. aureus ATCC 25923; Day (passage) 10,1.3
same,Fold change in MIC,S. aureus ATCC 25923; Day (passage) 11,1.3
same,Fold change in MIC,S. aureus ATCC 25923; Day (passage) 12,1.2
same,Fold change in MIC,S. aureus ATCC 25923; Day (passage) 13,1.2
same,Fold change in MIC,S. aureus ATCC 25923; Day (passage) 14,1.3
same,Fold change in MIC,S. aureus ATCC 25923; Day (passage) 15,1.2
same,Fold change in MIC,S. aureus ATCC 25923; Day (passage) 16,0.7
same,Fold change in MIC,S. aureus ATCC 25923; Day (passage) 17,1.3
same,Fold change in MIC,S. aureus ATCC 25923; Day (passage) 18,0.7
same,Fold change in MIC,S. aureus ATCC 25923; Day (passage) 19,1.8
same,Fold change in MIC,S. aureus ATCC 25923; Day (passage) 20,1.2
same,Fold change in MIC,S. aureus ATCC 25923; Day (passage) 21,1.0
same,Fold change in MIC,S. aureus ATCC 25923; Day (passage) 22,1.3
same,Fold change in MIC,S. aureus ATCC 25923; Day (passage) 23,1.2
same,Fold change in MIC,S. aureus ATCC 25923; Day (passage) 24,1.3
same,Fold change in MIC,S. aureus ATCC 25923; Day (passage) 25,1.2
same,increase in MIC (in words),S. aureus ATCC 25923; sub-inhibitory concentrations for 25 passages,no significant increase
same,inhibition of S. Typhimurium growth (in words),S. Typhimurium [2],consistently inhibited
same,antimicrobial activity (in words),[3],potent inhibition
same,Fold change in MIC,S. Typhimurium DSM554; Day (passage) 0,1.0
same,Fold change in MIC,S. Typhimurium DSM554; Day (passage) 1,0.7
same,Fold change in MIC,S. Typhimurium DSM554; Day (passage) 2,0.5
same,Fold change in MIC,S. Typhimurium DSM554; Day (passage) 3,0.7
same,Fold change in MIC,S. Typhimurium DSM554; Day (passage) 4,0.7
same,Fold change in MIC,S. Typhimurium DSM554; Day (passage) 5,0.7
same,Fold change in MIC,S. Typhimurium DSM554; Day (passage) 6,0.7
same,Fold change in MIC,S. Typhimurium DSM554; Day (passage) 7,0.8
same,Fold change in MIC,S. Typhimurium DSM554; Day (passage) 8,0.7
same,Fold change in MIC,S. Typhimurium DSM554; Day (passage) 9,0.7
same,Fold change in MIC,S. Typhimurium DSM554; Day (passage) 10,1.3
same,Fold change in MIC,S. Typhimurium DSM554; Day (passage) 11,1.2
same,Fold change in MIC,S. Typhimurium DSM554; Day (passage) 12,0.7
same,Fold change in MIC,S. Typhimurium DSM554; Day (passage) 13,0.8
same,Fold change in MIC,S. Typhimurium DSM554; Day (passage) 14,0.7
same,Fold change in MIC,S. Typhimurium DSM554; Day (passage) 15,0.375
same,Fold change in MIC,S. Typhimurium DSM554; Day (passage) 16,0.7
same,Fold change in MIC,S. Typhimurium DSM554; Day (passage) 17,1.0
same,Fold change in MIC,S. Typhimurium DSM554; Day (passage) 18,0.8
same,Fold change in MIC,S. Typhimurium DSM554; Day (passage) 19,0.7
same,Fold change in MIC,S. Typhimurium DSM554; Day (passage) 20,0.5
same,Fold change in MIC,S. Typhimurium DSM554; Day (passage) 21,0.7
same,Fold change in MIC,S. Typhimurium DSM554; Day (passage) 22,1.0
same,Fold change in MIC,S. Typhimurium DSM554; Day (passage) 23,0.5
same,Fold change in MIC,S. Typhimurium DSM554; Day (passage) 24,0.5
same,Fold change in MIC,S. Typhimurium DSM554; Day (passage) 25,0.5
same,emergence of resistant isolates (in words),S. Typhimurium DSM554; continuous serial passages,no resistant S. Typhimurium isolates emerged
